Results: US4055640A, “Compositions and methods for controlling the growth of bacteria, fungi and algae using certain derivatives of N-(2,2-dichlorovinyl)salicylamides” (Nippon Kayaku Co., Ltd., priority 1975, dated 1977)
In brackets after ≈: the same amount, converted by molar mass.

How the values were obtained:
[1] = system: Bacillus subtilis; experiment: Minimum inhibitory amount, dilution methods (Example 24); format: cell-based; settings: Bacillus subtilis, read-out: Minimum inhibitory amount
Excerpt: (§1) Bactericidal activity and fungicidal activity of the active compounds of the present invention were examined by potato-dextrose agar dilution method, or [2] glucose bouillon medium dilution method. The results are shown in Table 10 below as the minimum inhibitory concentration (the minimum concentration of active compound found to produce 100% control of the test bacteria and fungi).

[2] = system: Penicillium Citrinum; experiment: as above; format: cell-based; settings: Penicillium citrinum, read-out: Minimum inhibitory amount
Excerpt: as §1

[3] = system: Staphylococcus aureus; experiment: as above; format: cell-based; settings: Staphylococcus aureus, read-out: Minimum inhibitory amount
Excerpt: as §1

[4] = system: Escherichia coli; experiment: as above; format: cell-based; settings: Escherichia coli, read-out: Minimum inhibitory amount
Excerpt: as §1

[5] = system: Aspergillus niger; experiment: as above; format: cell-based; settings: Aspergillus niger, read-out: Minimum inhibitory amount
Excerpt: as §1

[6] = system: Cladosporium harbarum; experiment: as above; format: cell-based; settings: Cladosporium, read-out: Minimum inhibitory amount
Excerpt: as §1

[7] = system: cucumber (variety: Azumamidori); experiment: Phytotoxicity on cucumber (Experimental Example 3); format: in vivo; settings: 1,000 ppm
[8] = system: seedling blight of rice plant (pathogen Fusarium sp. and Rhizoctonia sp.); experiment: Exterminating test on seedling blight of rice plant (Experimental Example 1); format: in vivo; settings: soil, 408 h, read-out: Percentage of healthy seedlings
How it was run: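 Pathogen-contaminated nursery soil (Fusarium sp., Rhizoctonia sp.) mixed with 5% compound dust at 5 g per box; Nihonbare rice sown, grown 7 days at 17° C in lighting chamber, then moved to field. Assessed 10 days later as percentage of healthy seedlings; commercial 4% hydroxyisoxazol dust run as control.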

[9] = system: cucumber (variety; Tokiwazibai); experiment: Phytotoxicity on cucumber (Experimental Example 4); format: in vivo; settings: 500 ppm
Method: Exterminating test on Fusarium wilt of cucumber Twenty (20) grams of infected soil was added uniformly into each pot which was filled with steam sterilized field soil, then 18 seeds of cucumber (variety; Tokiwazibai) were sowed in each pot. Eighty percent (80%) wettable powder of the present invention was diluted with water to obtain a suspension, and each pot was drenched with the suspension in an amount of 100 ml. Fifty percent (50%) wettable powder of methyl-1-(butylcarbamoyl) 2-benzimidazol carbamate (hereinafter referred to as Benlate) on the market was used as a control and tested by the same method. After two weeks of planting, degrees attacked by the pathogen was observed and a "percentage of healthy seedlings" was calculated as follows: [formula]

[10] = system: rice plant (variety: Nihonbare); experiment: Phytotoxicity on rice plant (Experimental Example 1); format: in vivo; settings: 0.25g/box a.i.
Method: Exterminating test on seedling blight of rice plant Nursery boxes (60 × 30 × 3 cm) were filled with soil which were contaminated with pathogen (Fusarium sp. and Rhizoctonia sp.) The dust in which the present compound was contained in a ratio of 5% by weight was added in the box in a ratio of 5 grams per box and mixed well with soil. Thereafter, seeds of rice plant (variety: Nihonbare) were sowed in drills at a rate of 0.3 liter per box and grown up in a lighting chamber at 17° C. After 7 days from the sowing, the boxes were carried out in the field. Furthermore, 10 days thereafter the observations were made. Four percent (4%) dust of 3-hydroxy-5-methyl isoxazol (hereinafter referred to as hydroxyisoxazol) on the market was used as a control and tested by the same method. The test results are shown in Table 2 with a "percentage of healthy seedlings". The percentage of healthy seedlings was calculated as follows: […]

[11] = system: Fusarium wilt of cucumber; experiment: Exterminating test on Fusarium wilt of cucumber (Experimental Example 4); format: in vivo, Fusarium oxysporum f, cucumerinum; settings: Fusarium, soil, 336 h, read-out: Percentage of healthy seedlings
How it was run: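 Pots of steam-sterilized soil mixed with 20 g infested soil, sown with 18 cucumber seeds (Tokiwazibai), drenched with 100 ml aqueous suspension of 80% wettable powder. Benlate 50% wettable powder run as control. Disease scored two weeks after planting as percentage of healthy seedlings.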

[12] = system: Rhizoctonia solani (damping-off of cucumber); experiment: Exterminating test on damping-off of cucumber (Experimental Example 3); format: in vivo; settings: Rhizoctonia solani, soil, 240 h, read-out: Percentage of healthy seedlings
How it was run: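 Pots of field soil infested with Rhizoctonia solani (5 g/pot), sown with 10 Azumamidori cucumber seeds, then drenched with 50 ml aqueous suspension of 80% wettable powder and kept in greenhouse. PCNB 50% wettable powder as control. Percentage of healthy seedlings scored 10 days after inoculation.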

**Q.** With CNC(=O)Oc1ccccc1C(=O)NC=C(Cl)Cl [Compound No. 19, O-(N'-methylcarbamoyl)-N-(2,2-dichlorovinyl) salicylamide] as the compound, how does the MIC [1] read?
**A.** 10 µg/mL (≈ 34.6 µM)

**Q.** And the MIC [2]?
**A.** 10 µg/mL (≈ 34.6 µM)

**Q.** And the MIC [3]?
**A.** 10 µg/mL (≈ 34.6 µM)

**Q.** And the MIC [4]?
**A.** 60 µg/mL (≈ 208 µM)

**Q.** What about the MIC [5] of the same compound?
**A.** 20 µg/mL (≈ 69.2 µM)

**Q.** What about the MIC [6] of the same compound?
**A.** 5 µg/mL (≈ 17.3 µM)

**Q.** What about the Phytotoxicity [7] of the same compound?
**A.** Nil

**Q.** And the Percentage of healthy seedlings at 0.25 g/box [8]?
**A.** 64.7%

**Q.** And the Phytotoxicity [9]?
**A.** Nil

**Q.** What about the Phytotoxicity [10] of the same compound?
**A.** Nil

**Q.** And the pest or weed control at 500 ppm [11]?
**A.** 38%

**Q.** What about the pest or weed control at 1000 ppm [12] of the same compound?
**A.** 65%
